According to US20250009856A1, “METHODS FOR TREATING RESPIRATORY DISEASES” (MUCPharm Pty Ltd, priority 2021, published 2025):

Tested on: chemokines, cytokines and growth factors in tracheal aspirate samples from COVID-19 patients
Assay: Immunological inflammatory mediators, 27-plex bead assay
Design: species or system human
Details: BromAc 125 and 250 mcg + 2% NAC, or NAC alone at 2%; 60 minutes, 37° C.
Procedure: In order to verify the effect of BromAc in the inflammatory mediators present in tracheal aspirate (TA) samples from COVID-19 patients. TA specimens were treated with 125 to 250 μg of Bromelain and 2% NAC (BromAc) using the MAD device as described previously. Treated and untreated TA specimens were incubated at 37° C. in 6 well plates for 1 hour. After that, TA specimen aliquots were initially cleared by centrifugation at 800×g for 10 min, at room temperature and TA supernatants were transferred to fresh 2 mL microtubes. Samples were diluted 1:10 and incubated with magnetic beads covered with monoclonal antibodies specific to several immunological mediators, such as: chemokines (CXCL8, CCL11, CCL3, CCL4, CCL2, and CXCL10), inflammatory cytokines (IL-1b, IL-6, TNF-α, IL-12, IFN-g, IL-15 and IL-17), regulatory cytokines (IL-1Ra, IL-9. IL-10) and growth factors (FGF-basic, PDGF, VEGF, G-CSF. GM-CSF, IL-2 and IL-7). Experiments were carried out according to the manufacturer's instructions using the Procarta Human Cytokine 27-plex Assay, (Invitrogen, CA, USA). The immunological mediators were measured in TA samples and the concentrations of each sample was determined according to standard curves run for each molecule tested using a fifth parameter logistic fit analysis. The results were expressed as pg/mL for all mediators tested. […]

CC(=O)N[C@@H](CS)C(=O)O [NAC, N-acetylcysteine]
IL-9 level, compared to untreated: the same effect was observed
